According to US20020035061A1, “COMPOSITIONS AND METHODS FOR TREATING INFECTIONS USING CATIONIC PEPTIDES ALONE OR IN COMBINATION WITH ANTIBIOTICS” (priority 1996, published 2002):

Legend:
[1] = tested on: S. pyogenes; assay: Agarose dilution assay (MIC); assay type: cell-based; settings: S. pyogenes strain SPY002
[2] = tested on: K. pneumoniae; assay type: cell-based; settings: K. pneumoniae strain KP002
[3] = tested on: P. mirabilis; assay: Agarose dilution assay (MIC); assay type: cell-based; settings: P. mirabilis strain PM001
[4] = tested on: E. coli; assay type: cell-based; settings: E. coli strain ECO001
[5] = tested on: E. faecium; assay type: cell-based; settings: E. faecium strain EFM003
[6] = tested on: H. influenzae; assay: Agarose dilution assay (MIC); assay type: cell-based; settings: H. influenzae strain HIN002
[7] = tested on: A. calcoaceticus; assay type: cell-based; settings: A. calcoaceticus strain AC001
[8] = tested on: E. cloacae; assay type: cell-based; settings: E. cloacae strain ECL007
[9] = tested on: E. faecalis; assay type: cell-based; settings: E. faecalis strain EFS004
[10] = tested on: S. pneumoniae; assay: Agarose dilution assay (MIC); assay type: cell-based
[11] = tested on: S. maltophilia; assay type: cell-based; settings: S. maltophilia strain SMA001
[12] = tested on: MSSA (Smith, ATCC # 19640); assay: In vivo efficacy, MSSA infection; design: species or system S. aureus; settings: 18 mg/kg ip, formulation D, 60 min post-infection; end of eight day observation
[13] = tested on: inherently resistant microorganisms; assay: microbe, parasite or virus in culture; assay type: cell-based; settings: S. aureus MRSA
[14] = tested on: microorganisms with acquired resistance; assay: microbe, parasite or virus in culture; assay type: cell-based; settings: for Peptide MIC Alone: Piperacillin section; for FIC: peptide + Piperacillin
[15] = tested on: bacterial isolates; assay: microbe, parasite or virus in culture; assay type: cell-based; settings: for Peptide MIC Alone: Piperacillin section; for FIC: peptide + Piperacillin
[16] = tested on: HUVEC, human umbilical vein endothelial cells; assay: Cell death by Cytotox (Promega) lactate dehydrogenase release; assay type: cell-based; settings: LDH release
Experimental: (§1) In addition, APO-peptides and parent peptides are tested against a panel of cancer cell lines. Cell death is measured using the Cytotox (Promega) assay kit which measures the release of lactate dehydrogenase.
(§2) PBL, peripheral blood lymphocytes; HUVEC, human umbilical vein endothelial cells; H460,non-small lung tumor; K562, chronic myelogenous leukemia; DoHH-2, B-cell cell lymphoma; P388, lymphocytic leukemia; P388ADR, lymphocytic leukemia, multidrug resistant; MCF-7, breast carcinoma; MCF-7ADR, breast carcinoma, multidrug resistant.

[17] = tested on: MCF-7, breast carcinoma; assay: as above; assay type: cell-based; settings: LDH release
Experimental: as §1, §2

[18] = tested on: MCF-7ADR, breast carcinoma, multidrug resistant; assay: as above; assay type: cell-based; settings: LDH release
Experimental: as §1, §2

[19] = tested on: P388, lymphocytic leukemia; assay: as above; assay type: cell-based; settings: LDH release
Experimental: as §1, §2

[20] = tested on: H460, non-small lung tumor; assay: as above; assay type: cell-based; settings: LDH release
Experimental: as §1, §2

[21] = tested on: DoHH-2, B-cell cell lymphoma; assay: as above; assay type: cell-based; settings: LDH release
Experimental: as §1, §2

[22] = tested on: P388ADR, lymphocytic leukemia, multidrug resistant; assay: as above; assay type: cell-based; settings: LDH release
Experimental: as §1, §2

[23] = tested on: PBL, peripheral blood lymphocytes; assay: as above; assay type: cell-based; settings: LDH release
Experimental: as §1, §2

[24] = tested on: K562, chronic myelogenous leukemia; assay: as above; assay type: cell-based; settings: LDH release
Experimental: as §1, §2

[25] = tested on: S. marcescens; assay type: cell-based; settings: S. marcescens strain SMS004
[26] = tested on: P. aeruginosa; assay type: cell-based; settings: P. aeruginosa strain PA041
[27] = tested on: S. aureus; assay type: cell-based; settings: S. aureus strain SA010
[28] = tested on: mammalian red blood cells; settings: 37° C., 1 hour
Experimental: Candidate cationic peptides may be further tested for their toxicity to normal mammalian cells. An exemplary assay is a red blood cell (RBC) (erythrocyte) hemolysis assay. Briefly, in this assay, red blood cells are isolated from whole blood, typically by centrifugation, and washed free of plasma components. A 5% (v/v) suspension of erythrocytes in isotonic saline is incubated with different concentrations of peptide analogue. […] After incubation for approximately 1 hour at 37° C., the cells are centrifuged, and the absorbance of the supernatant at 540 nm is determined. A relative measure of lysis is determined by comparison to absorbance after complete lysis of erythrocytes using NH4Cl or equivalent (establishing a 100% value). A peptide with <10% lysis at 100 μg/ml is suitable. Preferably, there is <5% lysis at 100 μg/ml. Such peptides that are not lytic, or are only moderately lytic, are desirable and suitable for further screening.
Cationic peptides are tested for toxicity towards eukaryotic cells by measuring the extent of lysis of mammalian red blood cells (RBC). Briefly, in this assay, red blood cells are separated from whole blood by centrifugation and washed free of plasma components. A 5% (v/v) washed red blood cell suspension is prepared in isotonic saline. An aliquot of peptide in formulation is then added and mixed in. After incubation at 37° C. for 1 hour with constant agitation, the solution is centrifuged and the supernatant measured for absorbance at 540 nm to detect released hemoglobin.
A combination of cationic peptide and antibiotic agent is tested for toxicity towards eukaryotic cells by measuring the extent of lysis of mammalian red blood cells. Briefly, red blood cells are separated from whole blood by centrifugation, washed free of plasma components, and resuspended to a 5% (v/v) suspension in isotonic saline. […] Following incubation with constant agitation at 37° C. for 1 hour, the solution is centrifuged, and the absorbance of the supernatant is measured at 540 nm, which detects released hemoglobin. […]

## ILKKWPWWPWRRK [MBI 11E3CN]
[1]
  MIC: 16 µg/mL
[2]
  MIC: 32 µg/mL
[3]
  MIC: >128 µg/mL
[4]
  MIC: 4 µg/mL
[5]
  MIC: 2 µg/mL
[6]
  MIC: >128 µg/mL
[7]
  MIC: 16 µg/mL
[8]
  MIC: >128 µg/mL
[9]
  MIC: 8 µg/mL
[10]; S. pneumoniae strain SBSPN2
  MIC: >128 µg/mL
[10]; S. pneumoniae strain SPN044
  MIC: >128 µg/mL
[11]
  MIC: 32 µg/mL
[12]
  % Survival: 70%
[13]
  Peptide MIC + Piperacillin: 2 µg/mL
[13]; Piperacillin section
  Peptide MIC Alone: 4 µg/mL
[13]; peptide + Piperacillin
  FIC: 0.51
[14]; A. calcoaceticus 3
  Peptide MIC + Piperacillin: 8 µg/mL
  Piperacillin MIC + Peptide: 16 µg/mL
  Peptide MIC Alone: 32 µg/mL
  FIC: 0.75
[14]; H. influenzae 1
  Peptide MIC + Piperacillin: 64 µg/mL
  Piperacillin MIC + Peptide: 8 µg/mL
  Peptide MIC Alone: >128 µg/mL
  FIC: 0.38
[14]; H. influenzae 2
  Peptide MIC + Piperacillin: 16 µg/mL
  Piperacillin MIC + Peptide: 8 µg/mL
  Peptide MIC Alone: >128 µg/mL
  FIC: 0.31
[14]; P. aeruginosa 7
  Peptide MIC + Piperacillin: 32 µg/mL
  Piperacillin MIC + Peptide: 64 µg/mL
  Peptide MIC Alone: 64 µg/mL
  FIC: 1.00
[14]; P. aeruginosa 23
  Peptide MIC + Piperacillin: 1 µg/mL
  Piperacillin MIC + Peptide: 32 µg/mL
  Peptide MIC Alone: 64 µg/mL
  FIC: 0.27
[14]; S. maltophilia 3
  Peptide MIC + Piperacillin: 16 µg/mL
  Piperacillin MIC + Peptide: 16 µg/mL
  Peptide MIC Alone: 32 µg/mL
  FIC: 0.75
[14]; S. maltophilia 4
  Peptide MIC + Piperacillin: 16 µg/mL
  Piperacillin MIC + Peptide: 16 µg/mL
  Peptide MIC Alone: 32 µg/mL
  FIC: 0.75
[14]; S. marcescens SB1
  Peptide MIC + Piperacillin: 2 µg/mL
  Piperacillin MIC + Peptide: 16 µg/mL
  Peptide MIC Alone: >128 µg/mL
  FIC: 0.26
[15]; H. influenzae 1
  Peptide MIC + Piperacillin: 4 µg/mL
  Piperacillin MIC + Peptide: 32 µg/mL
  Peptide MIC Alone: >128 µg/mL
  FIC: 0.52
[15]; H. influenzae 2
  Peptide MIC + Piperacillin: 16 µg/mL
  Piperacillin MIC + Peptide: 8 µg/mL
  Peptide MIC Alone: >128 µg/mL
  FIC: 0.31
[15]; P. aeruginosa 23
  Peptide MIC + Piperacillin: 1 µg/mL
  Piperacillin MIC + Peptide: 32 µg/mL
  Peptide MIC Alone: 64 µg/mL
  FIC: 0.27
[15]; P. aeruginosa 32
  Peptide MIC + Piperacillin: 8 µg/mL
  Piperacillin MIC + Peptide: 32 µg/mL
  Peptide MIC Alone: 64 µg/mL
  FIC: 0.63
[15]; S. aureus 19 MRSA
  Peptide MIC + Piperacillin: 1 µg/mL
  Piperacillin MIC + Peptide: 64 µg/mL
  Peptide MIC Alone: 4 µg/mL
  FIC: 0.50
[15]; S. maltophilia 11
  Peptide MIC + Piperacillin: 64 µg/mL
  Piperacillin MIC + Peptide: 2 µg/mL
  Peptide MIC Alone: 128 µg/mL
  FIC: 0.51
[15]; S. marcescens SB1
  Peptide MIC + Piperacillin: 2 µg/mL
  Piperacillin MIC + Peptide: 16 µg/mL
  Peptide MIC Alone: >128 µg/mL
  FIC: 0.26
[16]
  LC50 ± S.E., HUVEC: 117 ± 7 µg/mL
[17]
  LC50 ± S.E., MCF-7: 5.6 ± 2 µg/mL
[18]
  LC50 ± S.E., MCF-7 ADR: 5.3 ± 1 µg/mL
[19]
  LC50 ± S.E., P388: 13.9 ± 3 µg/mL
[20]
  LC50 ± S.E., H460: 18 µg/mL
[21]
  LC50 ± S.E., DoHH-2: 3.6 µg/mL
[22]
  LC50 ± S.E., P388 ADR: 7.9 ± 3 µg/mL
[23]
  LC50 ± S.E., PBL: 22 ± 11 µg/mL
[24]
  LC50 ± S.E., K562: 9 µg/mL
[25]
  MIC: >128 µg/mL
[26]
  MIC: 64 µg/mL
[27]
  MIC: 2 µg/mL

## CC[C@H](C)[C@H](NC(=O)CNC(=O)[C@@H](NC(=O)[C@H](CCCCN)NC(=O)[C@H](CCCCN)NC(=O)[C@H](Cc1ccccc1)NC(=O)[C@H](CC(C)C)NC(=O)[C@H](CCCCN)NC(=O)[C@H](Cc1c[nH]c2ccccc12)NC(=O)[C@@H](N)CCCCN)[C@@H](C)CC)C(=O)NCC(=O)N[C@@H](C)C(=O)N[C@H](C(=O)N[C@@H](CC(C)C)C(=O)N[C@@H](CCCCN)C(=O)N[C@H](C(=O)N[C@@H](CC(C)C)C(=O)N[C@H](C(=O)N[C@H](C(=O)NCC(=O)N[C@@H](CC(C)C)C(=O)N1CCC[C@H]1C(=O)N[C@@H](C)C(=O)N[C@@H](CC(C)C)C(=O)N[C@@H](CCCCN)C(=O)N[C@@H](CC(C)C)C(=O)N[C@H](C(=O)N[C@@H](CCCCN)C(=O)O)[C@@H](C)O)[C@@H](C)O)[C@@H](C)O)C(C)C)C(C)C [MBI 28]
[28]
  % Lysis: 4.7%
